Assay results taken from patent US20120107916A1, “METHODS AND COMPOSITIONS FOR AFFECTING THE DIFFERENTIATION OF CLOSTRIDIA IN CULTURE” (priority 2009, published 2012).

Test system: C. beijerinckii NCIMB 8052
Assay: Final pH of cell-free culture supernatants of sequential batch cultures
Format: cell-based, Clostridium beijerinckii
Procedure: Bacterial strains and media. Clostridium acetobutylicum ATCC 824 and C. beijerinckii NCIMB 8052 are available from several commercial microbial culture collections including the American Type Culture Collection (ATCC), Manassas, Va., USA. The strains were grown at 30° C. or 37° C. in YE broth, which contained, per liter: 5.0 g yeast extract, 2.5 g casamino acids, 1.0 g L-asparagine, 0.5 g cysteine.HCl, 56 mg K2HPO4, 56 mg KH2PO4, 82 mg anhydrous MgSO4, 8 mg FeSO4.H2O, 6 mg MnSO4.H2O and 10 g glucose. Alternatively, strains were grown in YEPG broth, which was identical to YE expect that K2HPO4 and KH2PO4 were increased to 145 mg/L each and glucose was increased to 60 g/L. The pH of the media was adjusted to 7.2 using 45% KOH prior to sterilization by autoclaving. Media were solidified by addition of 1.5% Bacteriological Agar, Actimedia Manufacturers, Inc., Lansing, Mich. All cultures were grown in anaerobic conditions using the AnaeroPack System, Mitsubishi Gas Chemical Co., Inc., Japan, and GasPak EZ Gas Generating Sachets, Becton, Dickinson and Co., Sparks, Md. Spore stocks were kept at room temperature on agar-solidified media and were activated by suspending spores in 0.5 mL to 1.0 mL of medium followed by heating for 10 min at 80° C. before inoculation into growth medium.
Growth and pH measurements. Growth of bacterial cultures was measured spectrophotometrically using optical density at 600 nm and pH of cell-free culture supernatants was measured using a hand-held Shindengen ISFET pH Meter KS501, Shendengen Electric Manufacturing Co., Ltd., Bannockburn, Ill.
Effect of peptide SEQ ID NO:145 addition on sequential batch cultures of C. beijerinckii NCIMB 8052 grown at 30° C. Spores of C. beijerinckii NCIMB 8052 were germinated and grown overnight at 30° C. under anaerobic conditions in YEPG medium. After about 24 h of growth, […] of the culture was transferred (transfer 1) to each of four flasks that contained 10 mL of YEPG and either had no treatment or were treated with peptide SEQ ID NO:145 (see Table 8) at 1 nM, 10 nM or 50 nM. Thereafter, 75 μL of each culture was transferred, at the same time, every 24-48 h to 10 mL of fresh YEPG that contained the same peptide treatment or no treatment. Each culture was stopped after 96 hours of incubation and optical density, pH and ceric ion reactive chemicals were measured. Sequential batch culturing was continued through 6 transfers at which point all cultures appeared to be growing to the same extent (Table 12 and FIG. 4).
Effect of peptide SEQ ID NO:145 addition on sequential batch cultures of C. beijerinckii NCIMB 8052 grown at 37° C. Spores of C. beijerinckii NCIMB 8052 were germinated and grown overnight at 37° C. under anaerobic conditions in YEPG medium that either contained 50 nM of peptide SEQ ID NO:145 or no added peptide. After about 24 h of growth, 10 μL of the untreated culture was transferred (transfer 1) to each of two flasks that contained 10 mL of YEPG with either no treatment or with 50 nM peptide SEQ ID NO:145. At the same time, 10 μL of the culture that was germinated in the presence of peptide SEQ ID NO:145 was also transferred to 10 mL of YEPG that contained 50 nM of peptide SEQ ID NO:145. Thereafter, 10 μL of each culture was transferred, at the same time, every 24-48 h to 10 mL of fresh YEPG that contained the same peptide treatment or no treatment. Each culture was stopped after 72 hours of incubation and optical density, pH and ceric ion reactive chemicals were measured. Addition of peptide SEQ ID NO:145 appeared to have no effect on endpoint measurements of the growth of C. beijerinckii NCIMB 8052 after germination or during sequential transfers of cultures at 37° C. (Table 18 and FIG. 10). All three cultures stopped growing at the second transfer.

Substance: IRLIT (Derived from Clostridium beijerinckii SEQ ID NO: 141) [Peptide SEQ ID NO:145, pentapeptide from C. beijerinckii NCIMB 8052 locus Cbei_1065; chemically synthesized putative autoinducing peptide]
- Final pH of culture broths (1 nM peptide, transfer 1, 96 h, 30° C.): 5.3
- Final pH of culture broths (1 nM peptide, transfer 2, 96 h, 30° C.): 5.3
- Final pH of culture broths (1 nM peptide, transfer 3, 96 h, 30° C.): 5.1
- Final pH of culture broths (1 nM peptide, transfer 4, 96 h, 30° C.): 5.3
- Final pH of culture broths (1 nM peptide, transfer 5, 96 h, 30° C.): 5.3
- Final pH of culture broths (1 nM peptide, transfer 6, 96 h, 30° C.): 5.3
- Final pH of culture broths (10 nM peptide, transfer 1, 96 h, 30° C.): 5.3
- Final pH of culture broths (10 nM peptide, transfer 2, 96 h, 30° C.): 5.3
- Final pH of culture broths (10 nM peptide, transfer 3, 96 h, 30° C.): 5.0
- Final pH of culture broths (10 nM peptide, transfer 4, 96 h, 30° C.): 5.3
- Final pH of culture broths (10 nM peptide, transfer 5, 96 h, 30° C.): 5.4
- Final pH of culture broths (10 nM peptide, transfer 6, 96 h, 30° C.): 5.3
- Final pH of culture broths (50 nM peptide added after germination, transfer 1, 72 h, 37° C.): 4.1
- Final pH of culture broths (50 nM peptide added after germination, transfer 2, 72 h, 37° C.): 6.5
- Effect on endpoint measurements of pH (50 nM peptide, 37° C.): no apparent effect
- Final pH of culture broths (50 nM peptide, transfer 1, 96 h, 30° C.): 5.4
- Final pH of culture broths (50 nM peptide, transfer 2, 96 h, 30° C.): 5.3
- Final pH of culture broths (50 nM peptide, transfer 3, 96 h, 30° C.): 5.2
- Final pH of culture broths (50 nM peptide, transfer 4, 96 h, 30° C.): 5.3
- Final pH of culture broths (50 nM peptide, transfer 5, 96 h, 30° C.): 5.3
- Final pH of culture broths (50 nM peptide, transfer 6, 96 h, 30° C.): 5.3
- Final pH of culture broths (50-50: germinated and transferred in 50 nM peptide, transfer 1, 72 h, 37° C.): 4.1
- Final pH of culture broths (50-50: germinated and transferred in 50 nM peptide, transfer 2, 72 h, 37° C.): 6.6
- Final pH of culture broths (50-50: spores germinated in 50 nM peptide, transfer 0 (germinated culture), 72 h, 37° C.): 4.1
